Structures are written as SMILES. Values after ≈ are worked out from the molar mass of the structure shown.

The first assay has as its system Staphylococcus aureus (Isolate ID ATCC 29213). Put plainly: Bacterial assay: MIC by broth microdilution or agar dilution (CLSI), S. aureus ATCC 29213. It counts as cell-based. As to conditions: S. aureus (ATCC29213). The procedure, abridged: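 Activity is binned (A ≤0.25 μg/mL; B >0.25–1.0; C >1.0–16; D >16 μg/mL) from MICs determined per CLSI by broth microdilution or agar dilution, on S. aureus ATCC 29213 plus an FtsZ-G196A mutant strain.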
As for `NC(=O)c1c(F)ccc(OC(CCC(O)CO)c2nc(-c3ccc(C(F)(F)F)cc3)c(Br)o2)c1F` (single isomer, unassigned) [Compound 128, 3-((1-(5-bromo-4-(4-(trifluoromethyl)phenyl)oxazol-2-yl)-4,5-dihydroxypentyl)oxy)-2,6-difluorobenzamide (mixture of two diastereomeric pairs of enantiomers)], the “S. aureus MIC (μg/mL) Activity Range” value is “B (activity>0.25 μg/mL-1.0 μg/mL)”.

The assay is the same for the next values; noted with them: Staphylococcus aureus, ATCC29213, read-out: S. aureus MIC (μg/mL) Activity Range, S. aureus (ATCC29213).
As to `NC(=O)c1c(F)ccc(OC(COC(=O)NCc2cc[n+]([O-])cc2)c2nc(-c3ccc(C(F)(F)F)cc3)c(Br)o2)c1F` (stereo not drawn) [Compound 175, 4-((((2-(5-bromo-4-(4-(trifluoromethyl)phenyl)oxazol-2-yl)-2-(3-carbamoyl-2,4-difluorophenoxy)ethoxy)carbonyl)amino)methyl)pyridine 1-oxide], the MIC lay within 1 to 16 µg/mL (≈ 1.52 to 24.3 µM).

Regarding `NC(=O)c1c(F)ccc(OC(CO)c2nc(-c3ccc(Cl)c(F)c3)co2)c1F` (stereo not drawn) [Compound 222, 3-(1-(4-(4-chloro-3-fluorophenyl)oxazol-2-yl)-2-hydroxyethoxy)-2,6-difluorobenzamide], the MIC was over 16 µg/mL.

As for `NC(=O)c1c(F)ccc(OC(CO)c2nc(-c3cccc(O)c3)c(Br)o2)c1F` (stereo not drawn) [Compound 118, 3-(1-(5-bromo-4-(3-hydroxyphenyl)oxazol-2-yl)-2-hydroxyethoxy)-2,6-difluorobenzamide], the MIC is over 16 µg/mL.

`CNC(=O)CC(Oc1ccc(F)c(C(N)=O)c1F)c1nc(-c2ccc(C(F)(F)F)cc2)c(Br)o1` (stereo not drawn) [Compound 87, 3-(1-(5-bromo-4-(4-(trifluoromethyl)phenyl)oxazol-2-yl)-3-(methylamino)-3-oxopropoxy)-2,6-difluorobenzamide]: the MIC fell in the range of 0.25 to 1 µg/mL (≈ 0.456 to 1.82 µM).

Take `NC(=O)c1c(F)ccc(O[C@H](COCCO)c2nc(-c3ccc(F)cc3F)c(Br)o2)c1F` [Compound 265B, (R)-3-(1-(5-bromo-4-(2,4-difluorophenyl)oxazol-2-yl)-2-(2-hydroxyethoxy)ethoxy)-2,6-difluorobenzamide]: the MIC lay within 1 to 16 µg/mL (≈ 1.93 to 30.8 µM).

Consider `CCCCc1oc(C(CO)Oc2ccc(F)c(C(N)=O)c2F)nc1-c1ccc(C(F)(F)F)cc1` (stereo not drawn) [Compound 277, 3-(1-(5-butyl-4-(4-(trifluoromethyl)phenyl)oxazol-2-yl)-2-hydroxyethoxy)-2,6-difluorobenzamide], for which the MIC is 1 to 16 µg/mL (≈ 2.06 to 33 µM).

Take `CN(C)CC(=O)OCC(Oc1ccc(F)c(C(N)=O)c1F)c1nc(-c2ccc(C(F)(F)F)cc2)c(Br)o1` (stereo not drawn) [Compound 57, 2-(5-bromo-4-(4-(trifluoromethyl)phenyl)oxazol-2-yl)-2-(3-carbamoyl-2,4-difluorophenoxy)ethyl 2-(dimethylamino)acetate]: the MIC was 0.25 to 1 µg/mL (≈ 0.422 to 1.69 µM).

Consider `CCCc1oc(C(CO)Oc2ccc(F)c(C(N)=O)c2F)nc1-c1ccc(C(F)(F)F)cc1` (stereo not drawn) [Compound 67, 2,6-difluoro-3-(2-hydroxy-1-(5-propyl-4-(4-(trifluoromethyl)phenyl)oxazol-2-yl)ethoxy)benzamide], for which the MIC is 1 to 16 µg/mL (≈ 2.13 to 34 µM).

Turning to `CC(Oc1ccc(F)c(C(N)=O)c1F)c1nc(-c2ccc(C(F)(F)F)cn2)c(Br)o1` (stereo not drawn) [Compound 54], the MIC was 0.25 to 1 µg/mL (≈ 0.508 to 2.03 µM).

Take `Cn1ccc(CNC(=O)OCC(Oc2ccc(F)c(C(N)=O)c2F)c2nc(-c3ccc(C(F)(F)F)cc3)c(Br)o2)n1` (stereo not drawn) [Compound 193, 2-(5-bromo-4-(4-(trifluoromethyl)phenyl)oxazol-2-yl)-2-(3-carbamoyl-2,4-difluorophenoxy)ethyl ((1-methyl-1H-pyrazol-3-yl)methyl)carbamate]: the MIC was under 0.25 µg/mL.

For the compound `COCCn1cnnc1CNC(=O)OCC(Oc1ccc(F)c(C(N)=O)c1F)c1nc(-c2ccc(C(F)(F)F)cc2)c(Br)o1` (stereo not drawn) [Compound 206, 2-(5-bromo-4-(4-(trifluoromethyl)phenyl)oxazol-2-yl)-2-(3-carbamoyl-2,4-difluorophenoxy)ethyl ((4-(2-methoxyethyl)-4H-1,2,4-triazol-3-yl)methyl)carbamate], the MIC lay within 1 to 16 µg/mL (≈ 1.45 to 23.2 µM).

As for `COc1cc(CNC(=O)OCC(Oc2ccc(F)c(C(N)=O)c2F)c2nc(-c3ccc(C(F)(F)F)cc3)c(Br)o2)ccn1` (stereo not drawn) [Compound 209, 2-(5-bromo-4-(4-(trifluoromethyl)phenyl)oxazol-2-yl)-2-(3-carbamoyl-2,4-difluorophenoxy)ethyl ((2-methoxypyridin-4-yl)methyl)carbamate], the MIC fell in the range of 0.25 to 1 µg/mL (≈ 0.372 to 1.49 µM).

Regarding `CC(Oc1ccc(F)c(C(N)=O)c1F)c1nc(Br)c(-c2ccc(C(F)(F)F)cc2)o1` (stereo not drawn) [Compound 123], the MIC lay in the range of 1 to 16 µg/mL (≈ 2.04 to 32.6 µM).

With `NC(=O)c1c(F)ccc(OC(CNC(=O)c2ccccn2)c2nc(-c3ccc(C(F)(F)F)cc3)c(Br)o2)c1F` (stereo not drawn) [Compound 296, N-(2-(5-bromo-4-(4-(trifluoromethyl)phenyl)oxazol-2-yl)-2-(3-carbamoyl-2,4-difluorophenoxy)ethyl)picolinamide], the MIC was under 0.25 µg/mL.

`COCCNC(=O)OCC(Oc1ccc(F)c(C(N)=O)c1F)c1nc(-c2ccc(C(F)(F)F)cc2)c(Br)o1` (stereo not drawn) [Compound 164, 2-(5-bromo-4-(4-(trifluoromethyl)phenyl)oxazol-2-yl)-2-(3-carbamoyl-2,4-difluorophenoxy)ethyl (2-methoxyethyl)carbamate]: the MIC is 0.25 to 1 µg/mL (≈ 0.411 to 1.64 µM).

For the compound `CN(Cc1ccncc1)C(=O)OCC(Oc1ccc(F)c(C(N)=O)c1F)c1nc(-c2ccc(C(F)(F)F)cc2)c(Br)o1` (stereo not drawn) [Compound 186, 2-(5-bromo-4-(4-(trifluoromethyl)phenyl)oxazol-2-yl)-2-(3-carbamoyl-2,4-difluorophenoxy)ethyl methyl(pyridin-4-ylmethyl)carbamate], the MIC lay within 0.25 to 1 µg/mL (≈ 0.381 to 1.53 µM).

With `COc1ccc(CNC(=O)OCC(Oc2ccc(F)c(C(N)=O)c2F)c2nc(-c3ccc(C(F)(F)F)cc3)c(Br)o2)cn1` (stereo not drawn) [Compound 208, 2-(5-bromo-4-(4-(trifluoromethyl)phenyl)oxazol-2-yl)-2-(3-carbamoyl-2,4-difluorophenoxy)ethyl ((6-methoxypyridin-3-yl)methyl)carbamate], the MIC lay in the range of 0.25 to 1 µg/mL (≈ 0.372 to 1.49 µM).

Consider `Cc1nnc(C(Oc2ccc(F)c(C(N)=O)c2F)c2nc(-c3ccc(C(F)(F)F)cc3)co2)o1` (stereo not drawn) [Compound 218, 2,6-difluoro-3-((5-methyl-1,3,4-oxadiazol-2-yl)(4-(4-(trifluoromethyl)phenyl)oxazol-2-yl)methoxy)benzamide], for which the MIC was over 16 µg/mL.

With `Cc1cccc(CNC(=O)OCC(Oc2ccc(F)c(C(N)=O)c2F)c2nc(-c3ccc(C(F)(F)F)cc3)c(Br)o2)n1` (stereo not drawn) [Compound 199, 2-(5-bromo-4-(4-(trifluoromethyl)phenyl)oxazol-2-yl)-2-(3-carbamoyl-2,4-difluorophenoxy)ethyl ((6-methylpyridin-2-yl)methyl)carbamate], the MIC fell in the range of 0.25 to 1 µg/mL (≈ 0.381 to 1.53 µM).

For the compound `CCOC(=O)C(Oc1ccc(F)c(C(N)=O)c1F)c1nc(-c2ccc(Cl)cc2)cs1` (stereo not drawn) [Compound 11, ethyl 2-(3-carbamoyl-2,4-difluorophenoxy)-2-(4-(4-chlorophenyl)thiazol-2-yl)acetate], the MIC is under 0.25 µg/mL.

Regarding `CCC(Oc1ccc(F)c(C(N)=O)c1F)c1nc(-c2ccc(Cl)cc2)c(Br)o1` (stereo not drawn) [Compound 18, 3-(1-(5-bromo-4-(4-chlorophenyl)oxazol-2-yl)propoxy)-2,6-difluorobenzamide], the MIC fell in the range of 1 to 16 µg/mL (≈ 2.12 to 33.9 µM).

Regarding `C=CCc1oc(C(C)Oc2ccc(F)c(C(N)=O)c2F)nc1-c1ccc(OC)cc1` (stereo not drawn) [Compound 9], the MIC lay within 0.25 to 1 µg/mL (≈ 0.603 to 2.41 µM).

Take `NC(=O)c1c(F)ccc(OC(CO)c2nc(-c3ccc(Cl)cc3)c(Br)o2)c1F` (stereo not drawn) [Compound 39, 3-(1-(5-bromo-4-(4-chlorophenyl)oxazol-2-yl)-2-hydroxyethoxy)-2,6-difluorobenzamide]: the MIC was under 0.25 µg/mL.

In the case of `COc1cccc(-c2nc(C(COC(C)=O)Oc3ccc(F)c(C(N)=O)c3F)oc2Br)c1` (stereo not drawn) [Compound 108, 2-(5-bromo-4-(3-methoxyphenyl)oxazol-2-yl)-2-(3-carbamoyl-2,4-difluorophenoxy)ethyl acetate], the MIC was over 16 µg/mL.

Consider `CC(Oc1ccc(F)c(C(N)=O)c1F)c1nc(-c2ccc(C(F)(F)F)cn2)c(Cl)o1` (stereo not drawn) [Compound 43], for which the MIC was in the range of 1 to 16 µg/mL (≈ 2.23 to 35.7 µM).

As to `CN(CC(=O)OCC(Oc1ccc(F)c(C(N)=O)c1F)c1nc(-c2ccc(C(F)(F)F)cc2)c(Br)o1)C(=O)OC(C)(C)C` (stereo not drawn) [Compound 61, 2-(5-bromo-4-(4-(trifluoromethyl)phenyl)oxazol-2-yl)-2-(3-carbamoyl-2,4-difluorophenoxy)ethyl 2-((tert-butoxycarbonyl)(methyl)amino)acetate], the MIC lay in the range of 0.25 to 1 µg/mL (≈ 0.369 to 1.47 µM).

Regarding `Cc1nc(C)c(-c2nc(C(CO)Oc3ccc(F)c(C(N)=O)c3F)oc2Br)s1` (stereo not drawn) [Compound 245, 3-(1-(5-bromo-4-(2,4-dimethylthiazol-5-yl)oxazol-2-yl)-2-hydroxyethoxy)-2,6-difluorobenzamide], the MIC is over 16 µg/mL.

Turning to `COc1ccc(-c2nc(C(COC(C)=O)Oc3ccc(F)c(C(N)=O)c3F)oc2Br)cc1` (stereo not drawn) [Compound 111, 2-(5-bromo-4-(4-methoxyphenyl)oxazol-2-yl)-2-(3-carbamoyl-2,4-difluorophenoxy)ethyl acetate], the MIC is 1 to 16 µg/mL.

As to `COCCOCC(Oc1ccc(F)c(C(N)=O)c1F)c1nc(-c2ccc(C(F)(F)F)cc2)c(Br)o1` (stereo not drawn) [Compound 155, 3-(1-(5-bromo-4-(4-(trifluoromethyl)phenyl)oxazol-2-yl)-2-(2-methoxyethoxy)ethoxy)-2,6-difluorobenzamide], the MIC is 0.25 to 1 µg/mL (≈ 0.442 to 1.77 µM).

On to `N#Cc1ccc(-c2nc(C(CO)Oc3ccc(F)c(C(N)=O)c3F)oc2Br)cc1` (stereo not drawn) [Compound 80, 3-(1-(5-bromo-4-(4-cyanophenyl)oxazol-2-yl)-2-hydroxyethoxy)-2,6-difluorobenzamide], for which the MIC lay in the range of 1 to 16 µg/mL (≈ 2.15 to 34.5 µM).

`CCCc1oc(C(C)Oc2ccc(F)c(C(N)=O)c2F)nc1-c1ccc(OC)cc1` (stereo not drawn) [Compound 15]: the MIC was in the range of 0.25 to 1 µg/mL (≈ 0.6 to 2.4 µM).

With `CC(=O)NNC(=O)CC(Oc1ccc(F)c(C(N)=O)c1F)c1nc(-c2ccc(C(F)(F)F)cc2)c(Br)o1` (stereo not drawn) [Compound 100, 3-(3-(2-acetylhydrazinyl)-1-(5-bromo-4-(4-(trifluoromethyl)phenyl)oxazol-2-yl)-3-oxopropoxy)-2,6-difluorobenzamide], the MIC was 1 to 16 µg/mL (≈ 1.69 to 27.1 µM).

These data come from patent US9511073B2, “Aromatic amides and uses thereof” (TAXIS Pharmaceuticals, Inc., priority 2011, dated 2016).
